± gives the expanded uncertainty stated by the source.
What was measured:
[1] = refractive index (Na D-line) (dimensionless); conditions: 100 kPa, Liquid, Standard Abbe refractometry
[2] = 100 kPa, Liquid; for viscosity: Falling or rolling sphere viscometry; for mass density: Vibrating tube method

NCCO [2-aminoethan-1-ol]
Conditions	mass density, [2] [kg/m3]	refractive index, [1]	viscosity, [2] [mPa·s]
298.15 K	1012.38 ± 0.25	1.45406 ± 0.00037	18.89 ± 0.18
303.15 K	1009.35 ± 0.25	1.45241 ± 0.00037	15.11 ± 0.14
313.15 K	1002.16 ± 0.24	1.449 ± 0.001	10.03 ± 0.094
323.15 K	994.4 ± 0.24	1.44522 ± 0.00037	6.983 ± 0.065
333.15 K	986.24 ± 0.24	1.44198 ± 0.00037	4.972 ± 0.047

Reference: the NIST ThermoML archive (doi:10.1021/je400830w)
